Values quoted from earlier work, collected in patent publication US20040229940A1, “Analeptic and antidepressant combinations” (Cephalon Inc, priority 2003, published 2004).

Columns and labels:
[1] = system: rats; details: rats (Touret et al., 1995; Edgar and Seidel, 1997)
[2] = system: cats; details: cats (Lin et al., 1992)
[3] = system: canines; details: canines (Shelton et al., 1995)
[4] = system: non-human primates; details: non-human primates (Hernant et al, 1991)
[5] = system: English bulldog sleep disordered breathing model; details: sleep apnea model, English bulldog (Panckeri et al, 1996)
[6] = system: narcoleptic canine; details: narcolepsy model, narcoleptic canine (Shelton et al, 1995)
[7] = system: major depressive disorder; details: at 6 weeks

SMILES | wakefulness [1] | wakefulness [2] | wakefulness [3] | wakefulness [4] | wakefulness [5] | wakefulness [6] | response [7]
NC(=O)C[S+]([O-])C(c1ccccc1)c1ccccc1 (stereo not shown) [Modafinil, 2-(benzhydrylsulfinyl) acetamide] | promotes wakefulness | promotes wakefulness | promotes wakefulness | promotes wakefulness | promotes wakefulness | promotes wakefulness | 
CNCCC(Oc1ccc(C(F)(F)F)cc1)c1ccccc1 (stereo not shown) [fluoxetine] |  |  |  |  |  |  | about 50%
